Assay results taken from US12173018B2, “Penicillin-binding protein inhibitors” (priority 2018, dated 2024).
≈ marks a conversion by molar mass, not a printed value. Like-named read-outs stand apart in the source and are kept apart here.

What was measured:
E. coli PBP3 = E. coli PBP3 (Escherichia coli (strain K12), UniProt P0AD68); test: E. coli PBP3 Bocillin-FL fluorescence polarization competition binding assay
How it was run: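 Competition against 0.1 μM Bocillin-FL for binding to 1.5 μM purified protein, read by fluorescence polarization for 60 min. Compounds tested from 0 to 1000 μM; EC50 taken as the concentration reducing probe binding.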

E. coli PBP1b = E. coli PBP1b (Escherichia coli (strain K12), UniProt P02919); test: Radioligand competition binding assay with 14C-labeled boronic acid probe, PBP1b
[1] = tested on: E. coli DH5α empty pLBII vector control strain; test: microbe, parasite or virus in culture; assay type: cell-based, Escherichia coli; conditions: Escherichia coli, read-out: Microbiological Activity (MIC in mg/L), E. coli DH5α/pLBII
Protocol: Briefly, cryo-preserved bacterial cultures of challenge strains are streaked for isolation on appropriate agar medium, in this case Mueller Hinton II agar. Following incubation to allow growth of the colonies, plates are sealed with parafilm and stored refrigerated for up to two weeks. For preparation of assay inoculum and to ensure low variability, at least 5 colonies are picked from the agar plates with an inoculating loop and aseptically transferred to a culture tube containing 3 mL of Mueller-Hinton Broth (supplemented with divalent cations to required levels based on Manufacturers' certification). The broth culture is grown for 3-5 hours at 37° C. with shaking at 200 rpm. Meanwhile, 2-fold serial dilutions of test compounds are conducted in a 96 well plate with a final volume of 75 μL per well at 2-fold the final desired concentration. After the dilution plates are set up the growing cultures are then diluted in a cuvette containing MH II broth and the optical density is measured at 600 nm. The Inoculum is diluted such that 75 μL of this culture in Mueller-Hinton Broth results in a starting bacterial concentration of 5×10^5 CFU/mL when added to the dilution plates. The plates are incubated for 16-20 hours at 37° C. The MIC values are read visually as the lowest concentration well with no bacterial growth.
To determine if test compounds were affected by CTX-M15, the most abundant extended spectrum […] in clinical settings worldwide, the inhibition of the growth of an engineered strain of Escherichia coli harboring CTX-M15 was tested. This strain was constructed by cloning the gene encoding CTX-M15 into the NdeI and BamHI restriction endonuclease sites of plasmid pLBII, placing the gene(s) under the control of the Lac promoter. The constructed expression plasmid for CTX-M15 was used to transform competent E. coli DH5α cells to make the engineered strain, including an empty pLBII vector control strain. The classic cell based broth microdilution MIC assay was employed as described above with the addition of control antibiotics, known to be degraded by β-lactamases (Ceftazidime, piperacillin and piperacillin+tazobactam).

[2] = tested on: engineered strain of Escherichia coli harboring CTX-M15; test: microbe, parasite or virus in culture; assay type: cell-based; conditions: Escherichia coli, read-out: Microbiological Activity (MIC in mg/L), E. coli DH5α/pLBII-CTX-M15, engineered strain producing CTX-M15
E. coli PBP2 = E. coli PBP2 (Escherichia coli (strain K12), UniProt P0AD65); test: E. coli PBP2 Bocillin-FL fluorescence polarization competition binding assay; conditions: fluorescence polarization competition binding with Bocillin-FL; read-out: E. coli K12 PBP2 Potency (EC50)
Text: To determine the ability of boronic acid-based test PBP inhibitors to bind Penicillin Binding Proteins (PBPs), Bocillin-FL (fluorescently-labeled penicillin V; ThermoFisher Scientific) was used in a fluorescence polarization (FP) competition binding assay to assess inhibitor binding to PBP2, PBP3 or PBP4 from Escherichia coli. PBPs were cloned and purified as described previously (King, D. T, et al., ACS Infectious Diseases 2015, 1, 175-184). To establish assay conditions for competition binding, an enzyme titration/saturation binding experiment was initially performed. Bocillin-FL was prepared at 0.2 μM in a buffer comprised of 50 mM Hepes (pH 8.0), 300 mM NaCl and 5% (v/v) glycerol. Saturation binding was performed by mixing 40 μl of PBP solutions ranging in concentrations from 0-12 μM with 40 μl of the 0.2 μM Bocillin-FL solution, in individual wells of a black 384-well microplate. FP was measured immediately upon mixing (Excitation, 490 nm; Emission, 520 nm; g-factor, 0.96), using a Cytation3 (BioTek) microplate reader and measured continuously for up to 120 minutes. […] For all PBPs the FP signal approached saturation with 1.5 μM PBP (final concentration). […] Assays (80 μl final volume) were performed with PBPs at a final concentration of 1.5 μM, Bocillin-FL at 0.1 μM and beta-lactam concentrations that ranged from 0-1000 μM. […] Bocillin-FL was added and the FP immediately measured for 60 minutes (90 minutes for PBP2). The beta-lactam potency was reported as the concentration of beta-lactam required to reduce binding of Bocillin-FL by […] (EC50). […] Binding assays for boronic acid PBP inhibitors were performed in an identical fashion.

E. coli AG100 = test: Broth microdilution MIC, E. coli AG100 (wild-type parent); assay type: cell-based; conditions: Escherichia coli; wild-type parent E. coli AG100, broth microdilution; read-out: MIC E. coli AG100
How it was run: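 Starting inoculum of 5×10^5 CFU/mL, from colonies grown 3-5 h in Mueller-Hinton broth with divalent cations, added to two-fold compound dilution series.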

E. coli ATCC 25922 = test: Broth microdilution MIC, E. coli ATCC 25922; assay type: cell-based; conditions: Escherichia coli, ATCC25922; E. coli ATCC 25922, broth microdilution; read-out: MIC E. coli 25922
How it was run: (§1)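 Strains are tested by standard CLSI broth microdilution. Log-phase cells, diluted by OD600 to 5×10^5 CFU/mL, meet 2-fold compound series and incubate 16-20 hours at 37° C before the lowest growth-free concentration is recorded.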

E. coli D22 = test: microbe, parasite or virus in culture; assay type: cell-based; conditions: Escherichia coli; hyper-permeable E. coli D22, broth microdilution; read-out: MIC E. coli D22
How it was run: as §1

E. coli AG100A = test: microbe, parasite or virus in culture; assay type: cell-based; conditions: Escherichia coli, read-out: MIC E. coli AG100A
How it was run: as §1

K. pneumoniae SI-117 = test: microbe, parasite or virus in culture; assay type: cell-based; conditions: Klebsiella pneumoniae, SI117, read-out: MIC K. pneumoniae SI-117
How it was run: as §1

E. coli 901C = test: microbe, parasite or virus in culture; assay type: cell-based; conditions: Escherichia coli; hyper-permeable E. coli 901C, broth microdilution; read-out: MIC E. coli 901C
How it was run: as §1

K. pneumoniae UMM = test: microbe, parasite or virus in culture; assay type: cell-based; conditions: Klebsiella pneumoniae; K. pneumoniae UMM producing SHV-5 and KPC-2; read-out: MIC K. pneumoniae UMM
How it was run: as §1

K. pneumoniae 848844 = test: microbe, parasite or virus in culture; assay type: cell-based, Klebsiella pneumoniae; conditions: Klebsiella pneumoniae; K. pneumoniae 848844 producing SHV-11 and KPC-2; read-out: MIC K. pneumoniae 848844
How it was run: as §1

[3] = fluorescence polarization competition binding with Bocillin-FL, read-out: E. coli K12 PBP3 Potency

Sequence of E. coli PBP2 (P0AD65 whole entry): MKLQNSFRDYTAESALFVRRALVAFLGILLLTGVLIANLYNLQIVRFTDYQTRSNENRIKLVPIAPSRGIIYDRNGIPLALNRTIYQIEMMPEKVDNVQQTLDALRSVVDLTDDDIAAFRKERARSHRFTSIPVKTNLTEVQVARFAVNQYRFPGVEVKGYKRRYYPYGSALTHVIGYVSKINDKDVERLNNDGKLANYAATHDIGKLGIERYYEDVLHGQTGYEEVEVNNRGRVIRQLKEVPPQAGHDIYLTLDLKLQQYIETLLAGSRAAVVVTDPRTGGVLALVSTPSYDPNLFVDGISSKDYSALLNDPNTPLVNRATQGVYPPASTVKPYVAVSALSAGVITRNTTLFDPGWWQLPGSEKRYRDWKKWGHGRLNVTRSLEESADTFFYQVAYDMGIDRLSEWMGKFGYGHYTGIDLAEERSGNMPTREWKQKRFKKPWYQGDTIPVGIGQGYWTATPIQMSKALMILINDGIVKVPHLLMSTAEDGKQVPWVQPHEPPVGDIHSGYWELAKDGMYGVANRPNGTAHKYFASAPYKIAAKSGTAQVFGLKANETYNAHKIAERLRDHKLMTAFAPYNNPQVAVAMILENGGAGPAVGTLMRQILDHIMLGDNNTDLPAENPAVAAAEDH
Sequence of E. coli PBP1b (P02919 whole entry): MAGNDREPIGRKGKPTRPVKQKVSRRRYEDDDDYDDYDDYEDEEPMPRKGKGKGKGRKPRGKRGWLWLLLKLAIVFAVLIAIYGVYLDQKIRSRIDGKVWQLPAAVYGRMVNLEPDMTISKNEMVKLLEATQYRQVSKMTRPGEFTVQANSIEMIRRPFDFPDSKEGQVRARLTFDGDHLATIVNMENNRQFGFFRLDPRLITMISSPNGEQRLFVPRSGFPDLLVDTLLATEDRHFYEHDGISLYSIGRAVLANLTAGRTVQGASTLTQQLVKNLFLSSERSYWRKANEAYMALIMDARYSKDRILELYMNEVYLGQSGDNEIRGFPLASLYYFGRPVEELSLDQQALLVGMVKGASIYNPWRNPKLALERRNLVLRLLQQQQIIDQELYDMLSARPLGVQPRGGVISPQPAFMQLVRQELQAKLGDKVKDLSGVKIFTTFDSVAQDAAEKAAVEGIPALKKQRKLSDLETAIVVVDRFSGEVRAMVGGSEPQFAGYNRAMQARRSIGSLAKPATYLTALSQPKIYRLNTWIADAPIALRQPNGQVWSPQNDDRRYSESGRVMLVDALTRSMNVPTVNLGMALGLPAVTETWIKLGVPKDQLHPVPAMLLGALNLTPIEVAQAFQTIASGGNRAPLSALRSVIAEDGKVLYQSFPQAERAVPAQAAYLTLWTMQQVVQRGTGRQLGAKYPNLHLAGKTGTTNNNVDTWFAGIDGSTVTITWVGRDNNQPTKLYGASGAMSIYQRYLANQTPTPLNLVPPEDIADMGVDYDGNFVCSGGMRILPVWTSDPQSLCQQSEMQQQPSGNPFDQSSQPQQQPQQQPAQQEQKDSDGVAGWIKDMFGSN
Sequence of E. coli PBP3 (P0AD68 whole entry): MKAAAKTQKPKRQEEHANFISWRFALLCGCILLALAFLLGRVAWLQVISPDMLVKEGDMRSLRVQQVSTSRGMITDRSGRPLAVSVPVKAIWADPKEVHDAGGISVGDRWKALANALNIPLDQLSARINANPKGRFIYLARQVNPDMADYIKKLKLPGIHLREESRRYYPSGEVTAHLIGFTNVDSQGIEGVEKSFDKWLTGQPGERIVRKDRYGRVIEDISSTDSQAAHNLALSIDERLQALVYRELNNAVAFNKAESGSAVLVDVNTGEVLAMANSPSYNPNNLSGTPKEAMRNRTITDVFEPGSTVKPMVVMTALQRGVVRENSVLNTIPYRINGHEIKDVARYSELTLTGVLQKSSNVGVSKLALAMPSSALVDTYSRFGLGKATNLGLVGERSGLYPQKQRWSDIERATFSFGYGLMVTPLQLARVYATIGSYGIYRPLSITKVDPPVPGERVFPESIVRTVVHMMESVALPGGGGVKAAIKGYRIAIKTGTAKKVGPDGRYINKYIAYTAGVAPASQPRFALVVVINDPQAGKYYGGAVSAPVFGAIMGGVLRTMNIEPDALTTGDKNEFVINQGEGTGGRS

Compound	EC50 (E. coli PBP3) [µM]	EC50 (E. coli PBP1b) [µM]	MIC [1] [mg/L]	MIC [2] [mg/L]	EC50 (E. coli PBP2) [µM]	MIC (E. coli AG100) [µg/mL]	EC50 (E. coli PBP3; [3]) [µM]	MIC (E. coli ATCC 25922) [µg/mL]	MIC (E. coli D22) [µg/mL]	MIC (E. coli AG100A) [µg/mL]	MIC (K. pneumoniae SI-117) [µg/mL]	MIC (E. coli 901C) [µg/mL]	MIC (K. pneumoniae UMM) [µg/mL]	MIC (K. pneumoniae 848844) [µg/mL]
CCN1CCN(C(=O)NCC(NC(=O)N2CCN(CC)C(=O)C2=O)C(=O)N[C@H]2Cc3cccc(C(=O)O)c3OB2O)C(=O)C1=O (stereo partly drawn) [Example 33, (3R)-3-(2,3-bis(4-ethyl-2,3-dioxopiperazine-1-carboxamido)propanamido)-2-hydroxy-3,4-dihydro-2H-benzo[e][1,2]oxaborinine-8-carboxylic acid]	> 500	< 10	> 512	> 512										
CCN1CCN(C(=O)NC(CNC(=O)c2ccc(O)c(O)c2)C(=O)N[C@H]2Cc3cccc(C(=O)O)c3OB2O)C(=O)C1=O (stereo partly drawn) [Example 35, (3R)-3-(3-(3,4-dihydroxybenzamido)-2-(4-ethyl-2,3-dioxopiperazine-1-carboxamido)propanamido)-2-hydroxy-3,4-dihydro-2H-benzo[e][1,2]oxaborinine-8-carboxylic acid]	> 500	< 10	> 512	> 512										
CCN1CCN(C(=O)NC(CNC(=O)c2cccc(O)c2O)C(=O)N[C@H]2Cc3cccc(C(=O)O)c3OB2O)C(=O)C1=O (stereo partly drawn) [Example 36, (3R)-3-(3-(2,3-dihydroxybenzamido)-2-(4-ethyl-2,3-dioxopiperazine-1-carboxamido)propanamido)-2-hydroxy-3,4-dihydro-2H-benzo[e][1,2]oxaborinine-8-carboxylic acid]	> 500	< 10	> 512	> 512										
CCN1CCN(C(=O)NC(C(=O)N[C@H]2Cc3cccc(C(=O)O)c3OB2O)c2ccc(O)nc2)C(=O)C1=O (stereo partly drawn) [Example 41, (3R)-3-(2-(4-ethyl-2,3-dioxopiperazine-1-carboxamido)-2-(6-hydroxypyridin-3-yl)acetamido)-2-hydroxy-3,4-dihydro-2H-benzo[e][1,2]oxaborinine-8-carboxylic acid]	30 to 500	< 10	32 to 64 (≈ 60.9 to 122 µM)	32 to 64 (≈ 60.9 to 122 µM)										
CCN1CCN(C(=O)NC(C(=O)N[C@H]2Cc3cccc(C(=O)O)c3OB2O)c2ccc(OC)cn2)C(=O)C1=O (stereo partly drawn) [Example 81, (3R)-3-(2-(4-ethyl-2,3-dioxopiperazine-1-carboxamido)-2-(5-methoxypyridin-2-yl)acetamido)-2-hydroxy-3,4-dihydro-2H-benzo[e][1,2]oxaborinine-8-carboxylic acid]	30 to 500			128 to 256 (≈ 237 to 475 µM)	30 to 500									
C[C@@H](O)[C@@H](NC(=O)N1CCN(CCF)C(=O)C1=O)C(=O)N[C@H]1Cc2ccc(F)c(C(=O)O)c2OB1O [Example 126, (R)-7-fluoro-3-((2R,3R)-2-(4-(2-fluoroethyl)-2,3-dioxopiperazine-1-carboxamido)-3-hydroxybutanamido)-2-hydroxy-3,4-dihydro-2H-benzo[e][1,2]oxaborinine-8-carboxylic acid]					> 500	8 to 16	> 500	8 to 16	2 to 4	8 to 16	8 to 16	2 to 4	8 to 16	32 to 64
CCN1CCN(C(=O)NC(C(=O)N[C@H]2Cc3cccc(C(=O)O)c3OB2O)c2ccc(N)nc2)C(=O)C1=O (stereo partly drawn) [Example 148, (3R)-3-(2-(6-aminopyridin-3-yl)-2-(4-ethyl-2,3-dioxopiperazine-1-carboxamido)acetamido)-2-hydroxy-3,4-dihydro-2H-benzo[e][1,2]oxaborinine-8-carboxylic acid]	30 to 500				> 500	32 to 64		8 to 16	2 to 4	2 to 4	32 to 64	0.5 to 1	32 to 64	32 to 64
CCN1CCN(C(=O)NC(C(=O)N[C@H]2Cc3cccc(C(=O)O)c3OB2O)c2ccc(NS(C)(=O)=O)cn2)C(=O)C1=O (stereo partly drawn) [Example 154, (3R)-3-(2-(4-ethyl-2,3-dioxopiperazine-1-carboxamido)-2-(5-(methylsulfonamido)pyridin-2-yl)acetamido)-2-hydroxy-3,4-dihydro-2H-benzo[e][1,2]oxaborinine-8-carboxylic acid]	30 to 500				30 to 500	> 128		> 128	8 to 16	8 to 16	> 128	0.5 to 1	> 128	> 128
CCN1CCN(C(=O)N[C@@H](C(=O)N[C@H]2Cc3cccc(C(=O)O)c3OB2O)c2ccc(O)c(F)c2)C(=O)C1=O [Example 156, (R)-3-((R)-2-(4-ethyl-2,3-dioxopiperazine-1-carboxamido)-2-(3-fluoro-4-hydroxyphenyl)acetamido)-2-hydroxy-3,4-dihydro-2H-benzo[e][1,2]oxaborinine-8-carboxylic acid]					> 500	32 to 64	< 30	32 to 64	2 to 4	2 to 4	32 to 64	< 0.25	32 to 64	32 to 64
